Publication PMC9377102, “Toxicity and toxicokinetics of the ethanol extract of Zuojin formula” (BMC Complementary Medicine and Therapies, 2022)
Like-named read-outs stand apart in the source and are kept apart here.

Assay: Toxicokinetics test in the satellite groups (UPLC-MS/MS of rat plasma)
Type: in vivo
Conditions: for AUC(0-t) / Cmax / Tmax / half-life: SD, rat, plasma, po; for half-life: read-out: T1/2 mean (converted)
Protocol: SD rats (5 ~ 6 weeks, 3/group/sex) were randomly allocated to three treatment groups and given the same dosage as those in the repeated toxicity experiment for 28 days. […] Carbamazepine was chosen as the internal standard (IS). The blood samples were centrifuged to obtain plasma. Then, 300 μL of acetonitrile containing 40 ng of IS was added to 100 μL of plasma. After vortexing for 1 min, the mixture was centrifuged at 17,000 rpm for 15 min at 4 °C. The supernatant of each sample was injected into a UPLC–MS/MS system for determination. The injection volume was 1 μL. UPLC–MS analysis was performed on a Thermo Fisher Scientific Ultimate 3000 UPLC system (San Jose, USA) and an API 4000 QTRAP mass spectrometer (Foster City, USA) equipped with an ESI source. The mobile phase consisted of 2 solvents: (A) water containing 0.1% formic acid and (B) 100% acetonitrile. For MS, multiple reaction monitoring (MRM) in positive ion mode was used as the scanning mode for the main components and IS in the plasma samples. The dwell time (DT), collision energy (CE), quadrupole 1 pre-rod bias (Q1) and quadrupole 3 pre-rod bias (Q3) are listed in Table 3.

[1] = female, female rats, Day 1, highest dose (berberine 72.08, epiberberine 7.42, coptisine 7.42, palmatine 18.26, jatrorrhizine 2.80, columbamine 5.93 mg/kg)
[2] = female, female rats, Day 1, lowest dose (berberine 8.01, epiberberine 0.82, coptisine 1.38, palmatine 2.03, jatrorrhizine 0.31, columbamine 0.66 mg/kg)
[3] = female, female rats, Day 1, middle dose (berberine 24.03, epiberberine 2.47, coptisine 2.47, palmatine 6.09, jatrorrhizine 0.93, columbamine 1.98 mg/kg)
[4] = female, female rats, Day 28, highest dose (berberine 72.08, epiberberine 7.42, coptisine 7.42, palmatine 18.26, jatrorrhizine 2.80, columbamine 5.93 mg/kg)
[5] = female, female rats, Day 28, lowest dose (berberine 8.01, epiberberine 0.82, coptisine 1.38, palmatine 2.03, jatrorrhizine 0.31, columbamine 0.66 mg/kg)
[6] = female, female rats, Day 28, middle dose (berberine 24.03, epiberberine 2.47, coptisine 2.47, palmatine 6.09, jatrorrhizine 0.93, columbamine 1.98 mg/kg)
[7] = male, male rats, Day 1, highest dose (berberine 72.08, epiberberine 7.42, coptisine 7.42, palmatine 18.26, jatrorrhizine 2.80, columbamine 5.93 mg/kg)
[8] = male, male rats, Day 1, lowest dose (berberine 8.01, epiberberine 0.82, coptisine 1.38, palmatine 2.03, jatrorrhizine 0.31, columbamine 0.66 mg/kg)
[9] = male, male rats, Day 1, middle dose (berberine 24.03, epiberberine 2.47, coptisine 2.47, palmatine 6.09, jatrorrhizine 0.93, columbamine 1.98 mg/kg)
[10] = male, male rats, Day 28, highest dose (berberine 72.08, epiberberine 7.42, coptisine 7.42, palmatine 18.26, jatrorrhizine 2.80, columbamine 5.93 mg/kg)
[11] = male, male rats, Day 28, lowest dose (berberine 8.01, epiberberine 0.82, coptisine 1.38, palmatine 2.03, jatrorrhizine 0.31, columbamine 0.66 mg/kg)
[12] = male, male rats, Day 28, middle dose (berberine 24.03, epiberberine 2.47, coptisine 2.47, palmatine 6.09, jatrorrhizine 0.93, columbamine 1.98 mg/kg)

Work on `COc1cc2c(cc1O)-c1cc3ccc(OC)c(OC)c3c[n+]1CC2` [columbamine] yielded an AUC(0-t) (female, 0.4 g/kg, female rats, Day 1, low dose TAZF 0.4 g/kg by gavage, read-out: AUC0-t) of 71.4 ± 80.1 ng·h/mL, a Cmax (female, 0.4 g/kg, female rats, Day 1, low dose TAZF 0.4 g/kg by gavage, read-out: Cmax) of 30 ± 20.7 ng/mL and an AUC(0-t) (female, 0.4 g/kg, female rats, Day 28, low dose TAZF 0.4 g/kg by gavage, read-out: AUC0-t) of 68.1 ± 76.9 ng·h/mL. It also gave a Cmax (female, 0.4 g/kg, female rats, Day 28, low dose TAZF 0.4 g/kg by gavage, read-out: Cmax) of 30.3 ± 40 ng/mL, an AUC(0-t) (female, 3.7 g/kg, female rats, Day 1, high dose TAZF 3.7 g/kg by gavage, read-out: AUC0-t) of 41.1 ± 10 ng·h/mL and a Cmax (female, 3.7 g/kg, female rats, Day 1, high dose TAZF 3.7 g/kg by gavage, read-out: Cmax) of 37.7 ± 30.4 ng/mL. For the same compound, the AUC(0-t) (female, 3.7 g/kg, female rats, Day 28, high dose TAZF 3.7 g/kg by gavage, read-out: AUC0-t) was 12.2 ± 4.52 ng·h/mL, the Cmax (female, 3.7 g/kg, female rats, Day 28, high dose TAZF 3.7 g/kg by gavage, read-out: Cmax) was 2.98 ± 0.24 ng/mL and the Tmax [1] was 0.5 h. It also gave an AUC(0-t) (female, female rats, Day 1, highest dose (berberine 72.08, epiberberine 7.42, coptisine 7.42, palmatine 18.26, jatrorrhizine 2.80, columbamine 5.93 mg/kg), read-out: AUC0-t mean) of 41.1 ng·h/mL, a Cmax (female, female rats, Day 1, highest dose (berberine 72.08, epiberberine 7.42, coptisine 7.42, palmatine 18.26, jatrorrhizine 2.80, columbamine 5.93 mg/kg), read-out: Cmax mean) of 37.7 ng/mL and a half-life [1] of 8.24 h. The Tmax [2] was 2.33 h, the AUC(0-t) (female, female rats, Day 1, lowest dose (berberine 8.01, epiberberine 0.82, coptisine 1.38, palmatine 2.03, jatrorrhizine 0.31, columbamine 0.66 mg/kg), read-out: AUC0-t mean) was 71.4 ng·h/mL and the Cmax (female, female rats, Day 1, lowest dose (berberine 8.01, epiberberine 0.82, coptisine 1.38, palmatine 2.03, jatrorrhizine 0.31, columbamine 0.66 mg/kg), read-out: Cmax mean) was 30 ng/mL. For the same compound, the half-life [2] was 4.31 h, the Tmax [3] was 0.83 h and the AUC(0-t) (female, female rats, Day 1, middle dose (berberine 24.03, epiberberine 2.47, coptisine 2.47, palmatine 6.09, jatrorrhizine 0.93, columbamine 1.98 mg/kg), read-out: AUC0-t mean) was 59.2 ng·h/mL. For the same compound, the Cmax (female, female rats, Day 1, middle dose (berberine 24.03, epiberberine 2.47, coptisine 2.47, palmatine 6.09, jatrorrhizine 0.93, columbamine 1.98 mg/kg), read-out: Cmax mean) was 39.6 ng/mL, the half-life [3] was 7.78 h and the Tmax [4] was 1.17 h. It also gave an AUC(0-t) (female, female rats, Day 28, highest dose (berberine 72.08, epiberberine 7.42, coptisine 7.42, palmatine 18.26, jatrorrhizine 2.80, columbamine 5.93 mg/kg), read-out: AUC0-t mean) of 12.2 ng·h/mL, a Cmax (female, female rats, Day 28, highest dose (berberine 72.08, epiberberine 7.42, coptisine 7.42, palmatine 18.26, jatrorrhizine 2.80, columbamine 5.93 mg/kg), read-out: Cmax mean) of 2.98 ng/mL and a half-life [4] of 12.4 h. It also gave a Tmax [5] of 0.42 h, an AUC(0-t) (female, female rats, Day 28, lowest dose (berberine 8.01, epiberberine 0.82, coptisine 1.38, palmatine 2.03, jatrorrhizine 0.31, columbamine 0.66 mg/kg), read-out: AUC0-t mean) of 68.1 ng·h/mL and a Cmax (female, female rats, Day 28, lowest dose (berberine 8.01, epiberberine 0.82, coptisine 1.38, palmatine 2.03, jatrorrhizine 0.31, columbamine 0.66 mg/kg), read-out: Cmax mean) of 30.3 ng/mL. The half-life [5] was 10.9 h, the Tmax [6] was 1.5 h and the AUC(0-t) (female, female rats, Day 28, middle dose (berberine 24.03, epiberberine 2.47, coptisine 2.47, palmatine 6.09, jatrorrhizine 0.93, columbamine 1.98 mg/kg), read-out: AUC0-t mean) was 9.42 ng·h/mL. It also gave a Cmax (female, female rats, Day 28, middle dose (berberine 24.03, epiberberine 2.47, coptisine 2.47, palmatine 6.09, jatrorrhizine 0.93, columbamine 1.98 mg/kg), read-out: Cmax mean) of 1.35 ng/mL, a half-life [6] of 10.7 h and an AUC(0-t) (male, 0.4 g/kg, male rats, Day 1, low dose TAZF 0.4 g/kg by gavage, read-out: AUC0-t) of 153 ± 54.9 ng·h/mL. It also gave a Cmax (male, 0.4 g/kg, male rats, Day 1, low dose TAZF 0.4 g/kg by gavage, read-out: Cmax) of 32.1 ± 28.7 ng/mL, an AUC(0-t) (male, 0.4 g/kg, male rats, Day 28, low dose TAZF 0.4 g/kg by gavage, read-out: AUC0-t) of 31.1 ± 2.21 ng·h/mL and a Cmax (male, 0.4 g/kg, male rats, Day 28, low dose TAZF 0.4 g/kg by gavage, read-out: Cmax) of 44.2 ± 42.3 ng/mL. It also gave an AUC(0-t) (male, 3.7 g/kg, male rats, Day 1, high dose TAZF 3.7 g/kg by gavage, read-out: AUC0-t) of 276 ± 92 ng·h/mL, a Cmax (male, 3.7 g/kg, male rats, Day 1, high dose TAZF 3.7 g/kg by gavage, read-out: Cmax) of 46.5 ± 30.3 ng/mL and an AUC(0-t) (male, 3.7 g/kg, male rats, Day 28, high dose TAZF 3.7 g/kg by gavage, read-out: AUC0-t) of 65.1 ± 6.74 ng·h/mL. For the same compound, the Cmax (male, 3.7 g/kg, male rats, Day 28, high dose TAZF 3.7 g/kg by gavage, read-out: Cmax) was 16.4 ± 11.8 ng/mL, the Tmax [7] was 4 h and the AUC(0-t) (male, male rats, Day 1, highest dose (berberine 72.08, epiberberine 7.42, coptisine 7.42, palmatine 18.26, jatrorrhizine 2.80, columbamine 5.93 mg/kg), read-out: AUC0-t mean) was 276 ng·h/mL. It also gave a Cmax (male, male rats, Day 1, highest dose (berberine 72.08, epiberberine 7.42, coptisine 7.42, palmatine 18.26, jatrorrhizine 2.80, columbamine 5.93 mg/kg), read-out: Cmax mean) of 46.5 ng/mL, a half-life [7] of 10.9 h and a Tmax [8] of 10 h. The AUC(0-t) (male, male rats, Day 1, lowest dose (berberine 8.01, epiberberine 0.82, coptisine 1.38, palmatine 2.03, jatrorrhizine 0.31, columbamine 0.66 mg/kg), read-out: AUC0-t mean) was 153 ng·h/mL, the Cmax (male, male rats, Day 1, lowest dose (berberine 8.01, epiberberine 0.82, coptisine 1.38, palmatine 2.03, jatrorrhizine 0.31, columbamine 0.66 mg/kg), read-out: Cmax mean) was 32.1 ng/mL and the half-life [8] was 47.8 h. The Tmax [9] was 1.83 h, the AUC(0-t) (male, male rats, Day 1, middle dose (berberine 24.03, epiberberine 2.47, coptisine 2.47, palmatine 6.09, jatrorrhizine 0.93, columbamine 1.98 mg/kg), read-out: AUC0-t mean) was 207 ng·h/mL and the Cmax (male, male rats, Day 1, middle dose (berberine 24.03, epiberberine 2.47, coptisine 2.47, palmatine 6.09, jatrorrhizine 0.93, columbamine 1.98 mg/kg), read-out: Cmax mean) was 41.7 ng/mL. For the same compound, the half-life [9] was 59.9 h, the Tmax [10] was 4.08 h and the AUC(0-t) (male, male rats, Day 28, highest dose (berberine 72.08, epiberberine 7.42, coptisine 7.42, palmatine 18.26, jatrorrhizine 2.80, columbamine 5.93 mg/kg), read-out: AUC0-t mean) was 65.1 ng·h/mL. It also gave a Cmax (male, male rats, Day 28, highest dose (berberine 72.08, epiberberine 7.42, coptisine 7.42, palmatine 18.26, jatrorrhizine 2.80, columbamine 5.93 mg/kg), read-out: Cmax mean) of 16.4 ng/mL, a half-life [10] of 11.2 h and a Tmax [11] of 0.83 h. For the same compound, the AUC(0-t) (male, male rats, Day 28, lowest dose (berberine 8.01, epiberberine 0.82, coptisine 1.38, palmatine 2.03, jatrorrhizine 0.31, columbamine 0.66 mg/kg), read-out: AUC0-t mean) was 31.1 ng·h/mL, the Cmax (male, male rats, Day 28, lowest dose (berberine 8.01, epiberberine 0.82, coptisine 1.38, palmatine 2.03, jatrorrhizine 0.31, columbamine 0.66 mg/kg), read-out: Cmax mean) was 44.2 ng/mL and the half-life [11] was 7.52 h. For the same compound, the Tmax [12] was 12 h, the AUC(0-t) (male, male rats, Day 28, middle dose (berberine 24.03, epiberberine 2.47, coptisine 2.47, palmatine 6.09, jatrorrhizine 0.93, columbamine 1.98 mg/kg), read-out: AUC0-t mean) was 90.6 ng·h/mL and the Cmax (male, male rats, Day 28, middle dose (berberine 24.03, epiberberine 2.47, coptisine 2.47, palmatine 6.09, jatrorrhizine 0.93, columbamine 1.98 mg/kg), read-out: Cmax mean) was 21.4 ng/mL. The half-life [12] was 4.07 h and the “Systemic exposure after 28 days of administration vs single administration” value (rats, oral TAZF) was “much lower”.
